Values quoted from earlier work, collected in PMC5880808, “A lever-like transduction pathway for long-distance chemical- and mechano-gating of the mechanosensitive Piezo1 channel” (Nature Communications, 2018).

Assays:
[1] = tested on: mPiezo1 loop deletion mutants ΔL15-16 (657-677) and ΔL19-20 (870–921); set-up: method as in PMID 29469092; settings: ΔL15-16 and ΔL19-20; cited from earlier work
[2] = tested on: mPiezo1 loop deletion mutants ΔL15-16 (657-677) and ΔL19-20 (870–921); set-up: method as in PMID 29469092; settings: ΔL15-16 and ΔL19-20; cited from earlier work; remark: listed apart in the source
Piezo1 = tested on: Piezo1; set-up: method as in PMID 26001275; settings: read-out: estimated EC50; cited from earlier work

Clc1cccc(Cl)c1CSc1nnc(-c2cnccn2)s1 [Yoda1, reference compound]
ability to potentiate poking-induced currents of loop deletion mutants [1]: retained its ability
ability to evoke Ca2+ responses in loop deletion mutants [2]: retained its ability
EC50 (Piezo1): ~17.1 µM
